Measured values: patent US20260193293A1, “PEPTIDES CAPABLE OF INHIBITING PROTEIN-PROTEIN INTERACTIONS AT GABAB1A SUBUNIT AND USES THEREOF” (UNIVERSITY OF COPENHAGEN, priority 2022, published 2026)
Read-outs that look alike come from different tables or passages of the source. Blank lines part the entries; values can stand above or below the molecule they belong to. Non-standard residues stand in square brackets, D forms with d. Residues, ends and D or L forms follow the SMILES beside them. NMeW = CN[C@@H](Cc1c[nH]c2ccccc12)C(=O)O; Cya = N[C@@H](CS(=O)(=O)O)C(=O)O

Biological target: Sushi domains (SD1/2) protein
Experiment: Fluorescence polarization (FP) competition assay with AJAP-1probe, calculated Ki
Assay type: binding
Outline: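 Ki values were derived from IC50s (sigmoidal fits, ≥ triplicate), with probe Kd obtained by saturation titration of SD1/2. Peptides displaced a 25 nM TAMRA-labelled probe; polarization read at 530/580 nm in 1% BSA-containing PBS, pH 7.4, room temperature.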

[1] = Table 6, elongation and truncation scan of PIANP binding epitope, read-out: Ki (nM) mean ± SEM
[2] = Table 4, truncation and elongation scans of APP epitope, read-out: Ki (nM) mean ± SEM
[3] = Table 11, deep mutational scanning validation variants of AJAP-1WT, read-out: Ki (nM) mean ± SEM

Ki [1]: 433 ± 2 nM
SMILES: CC[C@H](C)[C@H](NC(=O)[C@H](C)NC(=O)[C@H](Cc1c[nH]c2ccccc12)NC(=O)[C@@H]1CCCN1C(=O)[C@H](Cc1ccc(O)cc1)NC(C)=O)C(=O)N[C@H](C(=O)N[C@@H](Cc1c[nH]c2ccccc12)C(=O)NCC(=O)N1CCC[C@H]1C(=O)N[C@H](C(=O)N[C@H](C(=O)N[C@@H](CO)C(=O)N[C@@H](CCCNC(=N)N)C(=O)N[C@@H](CCC(=O)O)C(=O)N[C@@H](CC(=O)O)C(=O)NCC(N)=O)C(C)C)[C@@H](C)O)C(C)C (Ac-YPWAIVWGPTVSREDG-NH2)

Ki (Table 11, cells printed in μM, read-out: Ki (nM) mean ± SEM): > 6250 nM
SMILES: CC[C@H](C)[C@H](NC(=O)[C@H](Cc1ccccc1)NC(=O)[C@H](CCC(=O)O)NC(=O)[C@@H](NC(=O)[C@H](CCC(=O)O)NC(C)=O)[C@@H](C)O)C(=O)N1CCC[C@H]1C(=O)N[C@@H](Cc1c[nH]c2ccccc12)C(=O)NCC(=O)N1CCC[C@H]1C(=O)N[C@H](C(=O)NCC(=O)N[C@@H](CC(=O)O)C(=O)N[C@@H](CCC(=O)O)C(=O)N[C@@H](CC(=O)O)C(N)=O)[C@@H](C)O [ETEFIPWGPTGDED] (Ac-ETEFIPWGPTGDED-NH2)

Ki (Table 16, ncAAs incorporated peptides, read-out: Ki (nM) mean ± SEM): 12 ± 0.3 nM | Ki (purified peptides, read-out: Ki): 11.8 nM
SMILES: CC[C@H](C)[C@H](NC(=O)[C@H](Cc1ccccc1)NC(=O)[C@H](CCC(=O)O)NC(=O)[C@@H](NC(=O)[C@H](CCC(=O)O)NC(C)=O)[C@@H](C)O)C(=O)N[C@@H](CS(=O)(=O)O)C(=O)N[C@@H](Cc1c[nH]c2ccccc12)C(=O)NCC(=O)N1CCC[C@H]1C(=O)N[C@H](C(=O)NCC(=O)N[C@@H](CC(=O)O)C(=O)N[C@@H](CCC(=O)O)C(=O)N[C@@H](CC(=O)O)C(N)=O)[C@@H](C)O [ETEFI(Cya)WGPTGDED, Ac-ETEFI(Cya)WGPTGDED-NH2] (Ac-ETEFI[Cya]WGPTGDED-NH2)

Ki [1]: 15700 ± 210 nM
SMILES: CC[C@H](C)[C@H](NC(C)=O)C(=O)N[C@H](C(=O)N[C@@H](Cc1c[nH]c2ccccc12)C(=O)NCC(=O)N1CCC[C@H]1C(=O)N[C@H](C(=O)N[C@H](C(=O)N[C@@H](CO)C(=O)N[C@@H](CCCNC(=N)N)C(=O)N[C@@H](CCC(=O)O)C(=O)N[C@@H](CC(=O)O)C(=O)NCC(N)=O)C(C)C)[C@@H](C)O)C(C)C (Ac-IVWGPTVSREDG-NH2)

Ki [2]: 513 ± 17 nM
SMILES: CC(=O)N[C@@H](CC(=O)O)C(=O)N[C@@H](CO)C(=O)N[C@@H](C)C(=O)N[C@@H](CC(=O)O)C(=O)N[C@@H](C)C(=O)N[C@@H](CCC(=O)O)C(=O)N[C@@H](CCC(=O)O)C(=O)N[C@@H](CC(=O)O)C(=O)N[C@@H](CC(=O)O)C(=O)N[C@@H](CO)C(=O)N[C@@H](CC(=O)O)C(=O)N[C@H](C(=O)N[C@@H](Cc1c[nH]c2ccccc12)C(=O)N[C@@H](Cc1c[nH]c2ccccc12)C(=O)NCC(=O)NCC(=O)N[C@@H](C)C(=O)N[C@@H](CC(=O)O)C(=O)N[C@H](C(=O)N[C@@H](CC(=O)O)C(=O)N[C@@H](Cc1ccc(O)cc1)C(=O)N[C@@H](C)C(=O)N[C@@H](CC(=O)O)C(N)=O)[C@@H](C)O)C(C)C (Ac-DSADAEEDDSDVWWGGADTDYAD-NH2)

SMILES: CC[C@H](C)[C@H](NC(=O)[C@H](Cc1c[nH]c2ccccc12)NC(=O)[C@H](CC(=O)O)NC(=O)[C@H](CC(=O)O)NC(=O)[C@H](CC(=O)O)NC(=O)[C@H](CCC(=O)O)NC(=O)[C@H](CCCNC(=N)N)NC(=O)[C@H](CCCNC(=N)N)NC(=O)[C@H](CCCNC(=N)N)NC(=O)[C@H](CCC(N)=O)NC(=O)[C@H](CCCNC(=N)N)NC(=O)[C@H](CCCNC(=N)N)NC(=O)[C@H](CCCCN)NC(=O)[C@H](CCCCN)NC(=O)[C@H](CCCNC(=N)N)NC(=O)CNC(=O)[C@H](Cc1ccc(O)cc1)NC(C)=O)C(=O)N[C@@H](CC(=O)O)C(=O)N[C@@H](Cc1c[nH]c2ccccc12)C(=O)NCC(=O)N1CCC[C@H]1C(=O)N[C@H](C(=O)N[C@@H](CO)C(=O)N[C@@H](CC(=O)O)C(=O)N[C@@H](CC(=O)O)C(=O)N[C@@H](CC(=O)O)C(N)=O)[C@@H](C)O [Tat-17] (Ac-YGRKKRRQRRREDDDWIDWGPTSDDD-NH2)
Ki (CPP tagged peptides overview, SD1/2 binding affinity, mean ± SEM, n ≥ 3, read-out: Ki): 50 ± 2 nM | Ki (Table 14, CPPs tagged peptides, read-out: Ki (nM) mean ± SEM): 49.9 ± 2 nM

Ki [3]: 41 ± 2 nM
SMILES: CC[C@H](C)[C@H](NC(=O)[C@H](Cc1ccccc1)NC(=O)[C@H](CCC(=O)O)NC(=O)[C@@H](NC(=O)[C@H](CCC(=O)O)NC(C)=O)[C@@H](C)O)C(=O)N[C@@H](C)C(=O)N[C@@H](Cc1c[nH]c2ccccc12)C(=O)NCC(=O)N1CCC[C@H]1C(=O)N[C@H](C(=O)NCC(=O)N[C@@H](CC(=O)O)C(=O)N[C@@H](CCC(=O)O)C(=O)N1CCC[C@H]1C(N)=O)[C@@H](C)O (Ac-ETEFIAWGPTGDEP-NH2)

Ki [3]: 58 ± 4 nM
SMILES: CC[C@H](C)[C@H](NC(=O)[C@H](Cc1ccccc1)NC(=O)[C@H](Cc1c[nH]cn1)NC(=O)[C@@H](NC(=O)[C@H](CCC(=O)O)NC(C)=O)[C@@H](C)O)C(=O)N[C@@H](C)C(=O)N[C@@H](Cc1c[nH]c2ccccc12)C(=O)NCC(=O)N1CCC[C@H]1C(=O)N[C@H](C(=O)NCC(=O)N[C@@H](CC(=O)O)C(=O)N[C@@H](CCC(=O)O)C(=O)N[C@@H](CC(=O)O)C(N)=O)[C@@H](C)O [ETHFIAWGPTGDED]

Ki [3]: 40 ± 1 nM
SMILES: CC[C@H](C)[C@H](NC(=O)[C@H](Cc1ccccc1)NC(=O)[C@H](CCC(=O)O)NC(=O)[C@@H](NC(=O)[C@H](CCC(=O)O)NC(C)=O)[C@@H](C)O)C(=O)N[C@@H](C)C(=O)N[C@@H](Cc1c[nH]c2ccccc12)C(=O)NCC(=O)N1CCC[C@H]1C(=O)N[C@@H](Cc1ccccc1)C(=O)NCC(=O)N[C@@H](CC(=O)O)C(=O)N[C@@H](CCC(=O)O)C(=O)N[C@@H](CC(=O)O)C(N)=O [ETEFIAWGPFGDED] (Ac-ETEFIAWGPFGDED-NH2)

Ki (Table 7, cells printed in μM, read-out: Ki (nM) mean ± SEM): > 62500 nM
SMILES: CC(=O)N[C@@H](CCC(=O)O)C(=O)N[C@@H](CC(=O)O)C(=O)N[C@@H](CC(=O)O)C(=O)N[C@@H](CO)C(=O)N[C@@H](CC(=O)O)C(=O)N[C@H](C(=O)N[C@@H](Cc1c[nH]c2ccccc12)C(=O)N[C@@H](C)C(=O)NCC(=O)NCC(=O)N[C@@H](C)C(=O)N[C@@H](CC(=O)O)C(=O)N[C@H](C(=O)N[C@@H](CC(=O)O)C(N)=O)[C@@H](C)O)C(C)C (Ac-EDDSDVWAGGADTD-NH2)

Ki [2]: 6100 ± 307 nM
SMILES: CC(=O)N[C@@H](CC(=O)O)C(=O)N[C@H](C(=O)N[C@@H](Cc1c[nH]c2ccccc12)C(=O)N[C@@H](Cc1c[nH]c2ccccc12)C(=O)NCC(=O)NCC(=O)N[C@@H](C)C(=O)N[C@@H](CC(=O)O)C(=O)N[C@H](C(=O)N[C@@H](CC(=O)O)C(=O)N[C@@H](Cc1ccc(O)cc1)C(=O)N[C@@H](C)C(=O)N[C@@H](CC(=O)O)C(N)=O)[C@@H](C)O)C(C)C (Ac-DVWWGGADTDYAD-NH2)

Ki [3]: 22 ± 1 nM
SMILES: CC[C@H](C)[C@H](NC(=O)[C@H](Cc1ccccc1)NC(=O)[C@H](CCC(=O)O)NC(=O)[C@@H](NC(=O)[C@H](CCC(=O)O)NC(C)=O)[C@@H](C)CC)C(=O)N[C@@H](C)C(=O)N[C@@H](Cc1c[nH]c2ccccc12)C(=O)NCC(=O)N1CCC[C@H]1C(=O)N[C@H](C(=O)NCC(=O)N[C@@H](CC(=O)O)C(=O)N[C@@H](CCC(=O)O)C(=O)N[C@@H](CC(=O)O)C(N)=O)[C@@H](C)O [EIEFIAWGPTGDED]

Ki (Table 9, Ala-, D-amino acids and N-methylation scans of PIANPWT, read-out: Ki (nM) mean ± SEM): 833 ± 12 nM
SMILES: CC[C@H](C)[C@H](NC(=O)[C@H](C)NC(=O)[C@H](Cc1c[nH]c2ccccc12)N(C)C(=O)[C@@H]1CCCN1C(C)=O)C(=O)N[C@H](C(=O)N[C@@H](Cc1c[nH]c2ccccc12)C(=O)NCC(=O)N1CCC[C@H]1C(=O)N[C@H](C(=O)N[C@H](C(=O)N[C@@H](CO)C(=O)N[C@@H](CCCNC(=N)N)C(=O)N[C@@H](CCC(=O)O)C(=O)N[C@@H](CC(=O)O)C(N)=O)C(C)C)[C@@H](C)O)C(C)C [P(N-Me-W)AIVWGPTVSRED] (Ac-P[NMeW]AIVWGPTVSRED-NH2)
